# Reference: patent publication US12679836B2, “4H-pyrrolo[3,2-c]pyridin-4-one compounds” (Bayer Aktiengesellschaft, priority 2019, dated 2026)
# How the values were obtained:
# Type in all cases: cell-based
# [1] = molecular target: Ba/F3-ERBB2-A775_G776insYVMA cells (Homo sapiens, UniProt P04626, DUP772-775, cells depend on it); assay: Ba/F3 cell survival assay, ERBB2 A775_G776insYVMA; conditions: without IL-3, without EGF, 48 h; read-out: BA/F3 (ERBB2 A775_G776 insYVMA) IC50
# Method: (§1) 293T cells from ATCC were transfected with pBABEpuro expression constructs for mutant EGFR (V769_D770insASV, D770_N771insNPG, N771_P772insH, H773_V774insNPH, E746_A750del, L858R, D770_N771insSVD C797S, E746_A750del C797S, L858R C797S, L861Q) or mutant ERBB2 (A775_G776insYVMA) and pCL-Eco packaging vector using Fugene-6 transfection reagent from Promega. Plates were incubated at 37° C. for 48 h. Retrovirus was harvested by filtering the media supernatant through a 0.45 μm filter.
# (§2) Ba/F3 cells purchased from DSMZ were grown in RPMI+10% FBS+10 ng/mL IL-3 and infected with filtered retroviral supernatant at a 1:2 dilution. Polybrene was added to a concentration of 8 μg/mL, plates were spun for 90 min, and incubated overnight at 37° C. 2 μg/mL puromycin was added to the infected cells 24 h after infection and cells were continually grown in the presence of puromycin and 10 ng/mL IL-3. Following stably expressing Ba/F3 cell lines were generated: Ba/F3-EGFR-V769_D770insASV, Ba/F3-EGFR-D770_N771insNPG, Ba/F3-EGFR-N771_P772insH, Ba/F3-EGFR-H773_V774insNPH, Ba/F3-EGFR-E746_A750del, Ba/F3-EGFR-L858R, Ba/F3-EGFR-D770_N771 insSVD C797S, Ba/F3-EGFR-E746_A750del C797S, Ba/F3-EGFR-L858R C797S, Ba/F3-EGFR L861Q and Ba/F3-ERBB2-A775_G776insYVMA (Ba/F3-vector-control).
# (§3) For cell survival assays, Ba/F3 cells were grown to a density of 1-2 million cells per mL, spun down and resuspended in media without IL-3, and replated at a concentration 200,000-500,000 cells per mL. The cells ectopically expressing WT EGFR plated with 10 ng/mL Millipore Culture grade EGF and Ba/F3 cells containing mutant EGFR or Mutant ERBB2 were cultivated without EGF. The cells ectopically expressing pBABEpuro empty vector were plated with 10 ng/mL IL-3.
# (§4) 2 days later, cells were plated in 50 μL in a 384 well plate at a concentration of 4000 cells per well for cells assayed in the absence of IL-3 and 2000 cells per well for cells assayed in the presence of IL-3. 100 nL of compound was added to each well using a 100 nL pin head, and plates were incubated at 37° C. for 48 h.
# (§5) Cell viability was measured by adding 20 μL of Cell Titer-Glo Luminescent Cell Viability Reagent diluted 1:3 in PBS. Plates were sealed with Perkin Elmer Top-Seal, inverted several times to mix, and immediately centrifuged at 1000 rpm for 2 min. Plates were incubated in low light conditions for 8-10 min and luminescence was measured.
# [2] = molecular target: Ba/F3-EGFR-H773_V774insNPH cells (Homo sapiens, UniProt P00533, DUP771-773, cells depend on it); assay: Ba/F3 cell survival assay, EGFR H773_V774insNPH; conditions: read-out: BA/F3 (EGFR 773_774insNPH) IC50 [mol/l]; without IL-3, without EGF, 48 h
# Method: as §1, §2, §3, §4, §5
# [3] = molecular target: Ba/F3-EGFR-V769_D770insASV cells (Homo sapiens, UniProt P00533, DUP767-769, cells depend on it); assay: Ba/F3 cell survival assay, EGFR V769_D770insASV; conditions: without IL-3, without EGF, 48 h; read-out: BA/F3 (ASV) IC50
# Chain of Ba/F3-EGFR-V769_D770insASV cells (P00533 with tags, fused parts or gaps DUP767-769): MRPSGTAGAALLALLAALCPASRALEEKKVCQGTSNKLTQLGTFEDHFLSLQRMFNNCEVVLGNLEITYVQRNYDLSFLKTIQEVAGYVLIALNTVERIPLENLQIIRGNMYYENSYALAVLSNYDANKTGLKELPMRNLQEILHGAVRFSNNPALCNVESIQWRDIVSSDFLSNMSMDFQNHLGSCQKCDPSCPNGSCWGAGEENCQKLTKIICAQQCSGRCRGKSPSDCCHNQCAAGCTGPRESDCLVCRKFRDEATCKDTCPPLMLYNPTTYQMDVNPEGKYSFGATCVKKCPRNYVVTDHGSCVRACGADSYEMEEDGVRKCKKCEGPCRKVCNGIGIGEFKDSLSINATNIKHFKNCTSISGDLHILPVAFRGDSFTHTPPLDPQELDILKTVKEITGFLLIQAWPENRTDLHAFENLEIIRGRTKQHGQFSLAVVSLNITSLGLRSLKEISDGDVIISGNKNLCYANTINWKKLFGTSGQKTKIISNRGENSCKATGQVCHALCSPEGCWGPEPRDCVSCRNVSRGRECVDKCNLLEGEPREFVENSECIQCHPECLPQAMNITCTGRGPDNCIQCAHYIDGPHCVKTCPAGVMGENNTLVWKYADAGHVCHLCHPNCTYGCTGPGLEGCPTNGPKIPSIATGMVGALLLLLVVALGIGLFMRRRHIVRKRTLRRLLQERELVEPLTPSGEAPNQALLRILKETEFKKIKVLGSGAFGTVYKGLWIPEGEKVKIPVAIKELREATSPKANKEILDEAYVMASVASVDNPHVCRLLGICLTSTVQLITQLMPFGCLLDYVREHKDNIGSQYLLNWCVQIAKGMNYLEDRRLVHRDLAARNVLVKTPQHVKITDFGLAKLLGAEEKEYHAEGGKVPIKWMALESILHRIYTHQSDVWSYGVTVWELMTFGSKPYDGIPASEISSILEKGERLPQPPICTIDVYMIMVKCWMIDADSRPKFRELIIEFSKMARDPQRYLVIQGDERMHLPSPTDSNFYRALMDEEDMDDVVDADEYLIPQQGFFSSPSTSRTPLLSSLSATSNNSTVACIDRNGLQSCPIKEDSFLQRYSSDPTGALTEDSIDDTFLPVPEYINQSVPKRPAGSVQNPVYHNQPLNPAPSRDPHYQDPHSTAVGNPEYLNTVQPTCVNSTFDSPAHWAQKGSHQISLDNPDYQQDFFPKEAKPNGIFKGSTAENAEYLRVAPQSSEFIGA
# Method: as §1, §2, §3, §4, §5
# [4] = molecular target: Ba/F3-EGFR-E746_A750del cells (Homo sapiens, UniProt P00533, DEL746-750, cells depend on it); assay: Ba/F3 cell survival assay, EGFR E746_A750del; conditions: without IL-3, without EGF, 48 h; read-out: BA/F3 (EGFR E746_A750del) IC50
# Chain of Ba/F3-EGFR-E746_A750del cells (P00533 with tags, fused parts or gaps DEL746-750): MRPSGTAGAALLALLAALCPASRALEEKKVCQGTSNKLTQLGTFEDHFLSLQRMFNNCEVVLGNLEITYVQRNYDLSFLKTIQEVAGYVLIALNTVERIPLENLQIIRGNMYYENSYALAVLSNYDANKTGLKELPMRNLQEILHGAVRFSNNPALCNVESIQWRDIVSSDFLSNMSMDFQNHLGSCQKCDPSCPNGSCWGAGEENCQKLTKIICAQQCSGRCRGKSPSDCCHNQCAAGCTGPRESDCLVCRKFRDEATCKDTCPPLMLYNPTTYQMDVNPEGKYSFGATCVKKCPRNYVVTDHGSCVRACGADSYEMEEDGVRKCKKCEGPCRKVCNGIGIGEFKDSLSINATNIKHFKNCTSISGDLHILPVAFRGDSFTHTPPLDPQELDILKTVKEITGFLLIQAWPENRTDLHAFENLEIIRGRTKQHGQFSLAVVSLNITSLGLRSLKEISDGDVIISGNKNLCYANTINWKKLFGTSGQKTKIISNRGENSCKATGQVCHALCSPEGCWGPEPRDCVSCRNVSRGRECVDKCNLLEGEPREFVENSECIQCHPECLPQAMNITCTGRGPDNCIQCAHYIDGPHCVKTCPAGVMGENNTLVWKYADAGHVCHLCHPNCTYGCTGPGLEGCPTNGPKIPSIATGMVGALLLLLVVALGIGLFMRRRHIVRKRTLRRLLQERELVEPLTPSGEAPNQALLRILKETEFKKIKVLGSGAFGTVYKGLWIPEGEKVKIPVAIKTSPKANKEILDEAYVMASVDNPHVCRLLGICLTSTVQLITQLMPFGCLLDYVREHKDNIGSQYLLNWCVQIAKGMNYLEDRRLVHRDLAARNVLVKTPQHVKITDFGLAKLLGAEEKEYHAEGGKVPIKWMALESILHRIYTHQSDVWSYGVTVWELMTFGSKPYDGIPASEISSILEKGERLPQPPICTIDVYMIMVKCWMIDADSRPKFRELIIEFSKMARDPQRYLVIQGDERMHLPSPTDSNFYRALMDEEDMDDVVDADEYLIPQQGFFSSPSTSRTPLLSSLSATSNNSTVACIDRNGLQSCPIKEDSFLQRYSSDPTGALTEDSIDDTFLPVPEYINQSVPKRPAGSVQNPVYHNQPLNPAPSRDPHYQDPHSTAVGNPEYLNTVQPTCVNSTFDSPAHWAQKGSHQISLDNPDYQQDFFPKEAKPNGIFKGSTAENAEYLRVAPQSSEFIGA
# Method: as §1, §2, §3, §4, §5
# [5] = molecular target: Ba/F3-EGFR-N771_P772insH cells (Homo sapiens, UniProt P00533, INS771H, cells depend on it); assay: Ba/F3 cell survival assay, EGFR N771_P772insH; conditions: without IL-3, without EGF, 48 h; read-out: BA/F3 (EGFR N771_772 insH) IC50
# Chain of Ba/F3-EGFR-N771_P772insH cells (P00533 with tags, fused parts or gaps INS771H): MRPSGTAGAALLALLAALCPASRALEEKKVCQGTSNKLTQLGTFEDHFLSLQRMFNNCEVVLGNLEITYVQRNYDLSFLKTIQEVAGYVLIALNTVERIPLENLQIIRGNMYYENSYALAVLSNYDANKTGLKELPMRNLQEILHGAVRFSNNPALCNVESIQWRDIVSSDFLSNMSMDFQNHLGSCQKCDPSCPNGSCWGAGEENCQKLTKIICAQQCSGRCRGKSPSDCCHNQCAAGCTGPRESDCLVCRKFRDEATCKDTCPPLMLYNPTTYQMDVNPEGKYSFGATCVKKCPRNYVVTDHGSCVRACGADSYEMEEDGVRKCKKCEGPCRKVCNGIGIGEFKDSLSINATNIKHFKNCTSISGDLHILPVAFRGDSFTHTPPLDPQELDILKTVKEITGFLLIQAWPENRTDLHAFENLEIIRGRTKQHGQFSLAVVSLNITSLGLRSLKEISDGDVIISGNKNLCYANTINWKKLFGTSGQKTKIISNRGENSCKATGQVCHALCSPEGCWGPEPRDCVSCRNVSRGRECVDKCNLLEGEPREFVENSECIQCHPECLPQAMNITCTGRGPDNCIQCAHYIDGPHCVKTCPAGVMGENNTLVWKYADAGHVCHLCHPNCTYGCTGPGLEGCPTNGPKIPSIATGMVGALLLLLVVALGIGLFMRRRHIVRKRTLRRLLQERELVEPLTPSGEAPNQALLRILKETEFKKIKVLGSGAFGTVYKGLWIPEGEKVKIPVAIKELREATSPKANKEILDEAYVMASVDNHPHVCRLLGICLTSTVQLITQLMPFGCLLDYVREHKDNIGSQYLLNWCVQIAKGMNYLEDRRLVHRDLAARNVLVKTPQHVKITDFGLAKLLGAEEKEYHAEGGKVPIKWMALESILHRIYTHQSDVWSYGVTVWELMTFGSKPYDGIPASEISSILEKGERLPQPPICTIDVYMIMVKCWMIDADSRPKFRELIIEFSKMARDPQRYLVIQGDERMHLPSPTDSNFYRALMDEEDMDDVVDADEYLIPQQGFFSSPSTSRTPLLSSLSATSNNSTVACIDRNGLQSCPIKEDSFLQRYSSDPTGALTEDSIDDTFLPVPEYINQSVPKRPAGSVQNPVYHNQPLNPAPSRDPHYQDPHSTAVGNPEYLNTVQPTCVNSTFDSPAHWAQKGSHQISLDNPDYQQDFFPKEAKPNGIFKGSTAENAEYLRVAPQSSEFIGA
# Method: as §1, §2, §3, §4, §5
# [6] = molecular target: Ba/F3-EGFR-D770_N771insNPG cells (Homo sapiens, UniProt P00533, INS772GNP, cells depend on it); assay: Ba/F3 cell survival assay, EGFR D770_N771insNPG; conditions: without IL-3, without EGF, 48 h; read-out: BA/F3 (insNPG) IC50
# Method: as §1, §2, §3, §4, §5
# Ba/F3-EGFR-insSVD cells = Ba/F3-EGFR-insSVD cells (Homo sapiens, UniProt P00533, DUP768-770, cells depend on it); assay: Ba/F3 cell survival assay (Cell Titer-Glo), EGFR-insSVD; conditions: without IL-3, with 10 ng/mL EGF, 48 h; read-out: BA/F3 (insSVD) IC50
# How it was run: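 Ba/F3 cells stably expressing WT EGFR or EGFR-insSVD from retroviral transduction were grown without IL-3 on 10 ng/mL EGF. Cells were plated at 4000 cells/well, treated with compound for 48 h at 37° C, and viability was read by CellTiter-Glo luminescence.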
# Chain of Ba/F3-ERBB2-A775_G776insYVMA cells (P04626 with tags, fused parts or gaps DUP772-775): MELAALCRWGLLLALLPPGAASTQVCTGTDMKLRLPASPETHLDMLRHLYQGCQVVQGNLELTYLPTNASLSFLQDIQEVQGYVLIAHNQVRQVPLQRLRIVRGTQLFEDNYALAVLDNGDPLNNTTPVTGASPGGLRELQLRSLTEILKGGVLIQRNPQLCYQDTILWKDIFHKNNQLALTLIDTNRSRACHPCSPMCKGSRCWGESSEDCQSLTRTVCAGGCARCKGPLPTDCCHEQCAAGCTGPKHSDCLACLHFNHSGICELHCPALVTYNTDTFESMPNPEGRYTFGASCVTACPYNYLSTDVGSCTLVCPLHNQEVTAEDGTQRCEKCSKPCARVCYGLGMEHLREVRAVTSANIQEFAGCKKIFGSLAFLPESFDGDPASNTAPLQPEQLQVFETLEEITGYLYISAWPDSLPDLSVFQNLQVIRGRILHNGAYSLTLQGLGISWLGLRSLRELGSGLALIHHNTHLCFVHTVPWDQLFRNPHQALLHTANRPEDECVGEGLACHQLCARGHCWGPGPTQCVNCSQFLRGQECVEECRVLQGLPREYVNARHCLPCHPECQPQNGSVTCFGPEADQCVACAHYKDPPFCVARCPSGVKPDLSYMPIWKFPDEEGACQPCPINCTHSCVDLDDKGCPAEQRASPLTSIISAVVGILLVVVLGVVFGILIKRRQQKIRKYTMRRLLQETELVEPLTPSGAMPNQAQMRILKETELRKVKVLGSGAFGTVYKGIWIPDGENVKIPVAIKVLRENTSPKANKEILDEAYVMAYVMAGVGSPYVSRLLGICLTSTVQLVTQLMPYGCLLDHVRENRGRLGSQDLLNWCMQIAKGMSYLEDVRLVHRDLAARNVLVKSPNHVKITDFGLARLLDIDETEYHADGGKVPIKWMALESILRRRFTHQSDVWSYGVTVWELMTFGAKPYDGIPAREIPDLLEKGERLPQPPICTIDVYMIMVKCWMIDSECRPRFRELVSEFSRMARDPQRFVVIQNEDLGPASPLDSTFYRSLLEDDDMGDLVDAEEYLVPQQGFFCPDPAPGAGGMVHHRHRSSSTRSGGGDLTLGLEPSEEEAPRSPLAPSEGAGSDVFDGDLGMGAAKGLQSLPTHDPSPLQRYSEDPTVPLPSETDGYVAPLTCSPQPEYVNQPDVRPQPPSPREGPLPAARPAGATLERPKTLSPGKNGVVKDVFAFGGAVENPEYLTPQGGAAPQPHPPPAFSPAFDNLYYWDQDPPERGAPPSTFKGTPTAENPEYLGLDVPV
Compound,GI50 [1] [µM],GI50 [2] [µM],GI50 [3] [µM],GI50 [4] [µM],GI50 [5] [µM],GI50 [6] [µM],GI50 (Ba/F3-EGFR-insSVD cells) [µM]
"COc1c(Cl)cccc1Nc1c(-c2ccncc2OC[C@@H]2COCCO2)[nH]c2c1C(=O)NCC2 (single isomer, unassigned) [Example 2]",0.00831,0.0282,0.00466,< 0.000158,0.00748,0.00444,0.00712
"COc1c(F)cccc1Nc1c(-c2ccncc2OCC2COCCO2)[nH]c2c1C(=O)NCC2 (single isomer, unassigned) [Example 5, 2-{3-[(1,4-dioxan-2-yl)methoxy]pyridin-4-yl}-3-(3-fluoro-2-methoxyanilino)-1,5,6,7-tetrahydro-4H-pyrrolo[3,2-c]pyridin-4-one]",,0.0793,0.0287,0.000739,0.0115,0.0263,0.00973
"O=C1NCCc2[nH]c(-c3ccncc3OCC3COCCO3)c(Nc3cccc(Cl)c3Cl)c21 (single isomer, unassigned) [Example 8, 3-(2,3-dichloroanilino)-2-{3-[(1,4-dioxan-2-yl)methoxy]pyridin-4-yl}-1,5,6,7-tetrahydro-4H-pyrrolo[3,2-c]pyridin-4-one]",0.0131,0.0231,0.00962,< 0.000158,0.00491,0.0116,0.00818
"COc1c(F)cccc1Nc1c(-c2ccncc2OCC2CN(C)CCO2)[nH]c2c1C(=O)NCC2 (single isomer, unassigned) [Example 14, 3-(3-fluoro-2-methoxyanilino)-2-{3-[(4-methylmorpholin-2-yl)methoxy]pyridin-4-yl}-1,5,6,7-tetrahydro-4H-pyrrolo[3,2-c]pyridin-4-one]",0.0136,0.0658,0.0164,0.00172,0.0076,0.0125,0.0105
"COc1c(Cl)cccc1Nc1c(-c2ccncc2OCC2COC(C)(C)CO2)[nH]c2c1C(=O)NCC2 (single isomer, unassigned) [Example 32, 3-(3-chloro-2-methoxyanilino)-2-{3-[(5,5-dimethyl-1,4-dioxan-2-yl)methoxy]pyridin-4-yl}-1,5,6,7-tetrahydro-4H-pyrrolo[3,2-c]pyridin-4-one]",0.0167,0.0473,0.0132,0.00289,0.011,0.00938,
"Cc1c(Cl)cccc1Nc1c(-c2ccncc2OCC2COC(C)(C)CO2)[nH]c2c1C(=O)NCC2 (single isomer, unassigned) [Example 46, 3-(3-chloro-2-methyl-anilino)-2-[3-[(5,5-dimethyl-1,4-dioxan-2-yl)methoxy]-4-pyridyl]-1,5,6,7-tetrahydropyrrolo[3,2-c]pyridin-4-one]",0.011,0.0389,0.0117,0.00105,0.00577,0.0143,0.0101
"Cc1c(F)cccc1Nc1c(-c2ccncc2OCC2COCCO2)[nH]c2c1C(=O)NCC2 (single isomer, unassigned) [Example 48, 2-[3-(1,4-dioxan-2-ylmethoxy)-4-pyridyl]-3-(3-fluoro-2-methyl-anilino)-1,5,6,7-tetrahydropyrrolo[3,2-c]pyridin-4-one]",0.0398,0.142,0.0418,0.00143,0.0176,0.0424,0.0188
"Cc1c(Cl)cccc1Nc1c(-c2ccncc2OC[C@H]2COCCO2)[nH]c2c1C(=O)NCC2 (single isomer, unassigned) [Example 50]",0.0103,0.0403,0.0104,0.0011,0.00742,0.0113,0.00882
"COc1c(F)cccc1Nc1c(-c2ccncc2OC[C@@H]2COCCN2C)[nH]c2c1C(=O)NCC2 [Example 20, 3-(3-fluoro-2-methoxyanilino)-2-(3-{[(3S)-4-methylmorpholin-3-yl]methoxy}pyridin-4-yl)-1,5,6,7-tetrahydro-4H-pyrrolo[3,2-c]pyridin-4-one]",0.0235,0.0567,0.0117,,0.00659,0.0147,0.00825
"COc1c(Cl)cccc1Nc1c(-c2ccncc2OC[C@@H]2COCCN2C)[nH]c2c1C(=O)NCC2 [Example 21, 3-(3-chloro-2-methoxyanilino)-2-(3-{[(3S)-4-methylmorpholin-3-yl]methoxy}pyridin-4-yl)-1,5,6,7-tetrahydro-4H-pyrrolo[3,2-c]pyridin-4-one]",0.0134,0.0276,0.00778,0.000203,0.00422,0.00565,0.00349
"Cc1c(Cl)cccc1Nc1c(-c2ccncc2OC[C@@H]2CN(C)CCO2)[nH]c2c1C(=O)NCC2 [Example 42, 3-(3-chloro-2-methylanilino)-2-(3-{[(2S)-4-methylmorpholin-2-yl]methoxy}pyridin-4-yl)-1,5,6,7-tetrahydro-4H-pyrrolo[3,2-c]pyridin-4-one]",0.0132,0.0485,0.0141,0.000486,0.00601,0.012,0.0198
"CCc1c(Cl)cccc1Nc1c(-c2ccncc2OC[C@@H]2CN(C)CCO2)[nH]c2c1C(=O)NCC2 [Example 56, 3-(3-chloro-2-ethylanilino)-2-(3-{[(2S)-4-methylmorpholin-2-yl]methoxy}pyridin-4-yl)-1,5,6,7-tetrahydro-4H-pyrrolo[3,2-c]pyridin-4-one]",0.0135,0.0489,0.0141,0.000892,0.00736,0.00696,0.0119
